# Measurements published in patent US20250230193A1, “CYCLIC COMPOUND HAVING SELECTIVE KRAS INHIBITORY EFFECT ON HRAS AND NRAS” (CHUGAI SEIYAKU KABUSHIKI KAISHA, priority 2022, published 2025).
# How the values were obtained:
# [1] = target: GDP-bound HRAS wild-type protein (Homo sapiens, UniProt P01112); assay: Binding to HRAS by surface plasmon resonance (SPR), Single Cycle Kinetics; details: KD ratio HRAS/KRAS, SPR
# [2] = target: GDP-bound NRAS wild-type protein (Homo sapiens, UniProt P01111); assay: Binding to NRAS by surface plasmon resonance (SPR), Single Cycle Kinetics; details: KD ratio NRAS/KRAS, SPR
# GDP-bound NRAS wild-type protein, sequence (P01111 whole entry): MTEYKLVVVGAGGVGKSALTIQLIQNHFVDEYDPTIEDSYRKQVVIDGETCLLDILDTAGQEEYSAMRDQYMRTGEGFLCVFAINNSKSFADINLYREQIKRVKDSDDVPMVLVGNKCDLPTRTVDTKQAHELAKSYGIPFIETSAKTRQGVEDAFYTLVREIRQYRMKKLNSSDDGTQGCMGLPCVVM
# GDP-bound HRAS wild-type protein, sequence (P01112 whole entry): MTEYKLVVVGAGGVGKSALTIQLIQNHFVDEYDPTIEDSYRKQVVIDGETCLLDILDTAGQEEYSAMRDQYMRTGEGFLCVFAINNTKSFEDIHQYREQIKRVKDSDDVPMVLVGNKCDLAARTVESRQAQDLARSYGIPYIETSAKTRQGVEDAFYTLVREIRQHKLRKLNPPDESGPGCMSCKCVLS
SMILES,HRAS/KRAS (ratio of KD value with respect to GDP-bound HRAS wild-type protein to KD value with respect to KRAS) [1],NRAS/KRAS (ratio of KD value with respect to GDP-bound NRAS wild-type protein to KD value with respect to KRAS) [2]
C#CC[C@H]1C(=O)N[C@@H]([C@@H](C)CC)C(=O)N(C)CC(=O)N(C)[C@H]2CCCCN(C2=O)[C@@H](Cc2ccc(C(F)(F)F)cc2)C(=O)N(C)CC(=O)N[C@@H](CCc2cc(F)c(C(F)(F)F)c(F)c2)C(=O)N2C[C@H](OCC)C[C@H]2C(=O)NC2(CCC2)C(=O)N(C)[C@@H](C2CCCC2)C(=O)N(C)[C@H](C(=O)N2CCOCC2)CC(=O)N1C [PP0711],B (a compound having 3 or more and less than 10 is denoted as B),C (A compound having a KD ratio of 0.1 or more and less than 3 is denoted as C)
CCO[C@@H]1C[C@H]2C(=O)NC3(CCC3)C(=O)N(C)[C@@H](C3CCCC3)C(=O)N(C)[C@H](C(=O)N3CCOCC3)CC(=O)N(C)[C@@H](CC3CC3)C(=O)N[C@@H]([C@@H](C)CC)C(=O)N(C)CC(=O)N(C)[C@H]3CCCCN(C3=O)[C@@H](Cc3ccc(C(F)(F)F)cc3)C(=O)N(C)CC(=O)N[C@@H](CCc3cc(F)c(C(F)(F)F)c(F)c3)C(=O)N2C1 [PP0712],C (A compound having a KD ratio of 0.1 or more and less than 3 is denoted as C),C (A compound having a KD ratio of 0.1 or more and less than 3 is denoted as C)
CCO[C@@H]1C[C@H]2C(=O)NC3(CCC3)C(=O)N(C)[C@@H](C3CCCC3)C(=O)N(C)[C@H](C(=O)N3CCOCC3)CC(=O)N(C)[C@@H](CC3CCC3)C(=O)N[C@@H]([C@@H](C)CC)C(=O)N(C)CC(=O)N(C)[C@H]3CCCCN(C3=O)[C@@H](Cc3ccc(C(F)(F)F)cc3)C(=O)N(C)CC(=O)N[C@@H](CCc3cc(F)c(C(F)(F)F)c(F)c3)C(=O)N2C1 [PP0713],B (a compound having 3 or more and less than 10 is denoted as B),C (A compound having a KD ratio of 0.1 or more and less than 3 is denoted as C)
CCO[C@@H]1C[C@H]2C(=O)NC3(CCC3)C(=O)N(C)[C@@H](C3CCCC3)C(=O)N(C)[C@H](C(=O)N3CCOCC3)CC(=O)N(C)[C@@H](CC(C)(C)C)C(=O)N[C@@H]([C@@H](C)CC)C(=O)N(C)CC(=O)N(C)[C@H]3CCCCN(C3=O)[C@@H](Cc3ccc(C(F)(F)F)cc3)C(=O)N(C)CC(=O)N[C@@H](CCc3cc(F)c(C(F)(F)F)c(F)c3)C(=O)N2C1 [PP0714],B (a compound having 3 or more and less than 10 is denoted as B),C (A compound having a KD ratio of 0.1 or more and less than 3 is denoted as C)
CCO[C@@H]1C[C@H]2C(=O)NC3(CCC3)C(=O)N(C)[C@@H](C3CCCC3)C(=O)N(C)[C@H](C(=O)N3CCOCC3)CC(=O)N(C)[C@@H](CC3CCCC3)C(=O)N[C@@H]([C@@H](C)CC)C(=O)N(C)CC(=O)N(C)[C@H]3CCCCN(C3=O)[C@@H](Cc3ccc(C(F)(F)F)cc3)C(=O)N(C)CC(=O)N[C@@H](CCc3cc(F)c(C(F)(F)F)c(F)c3)C(=O)N2C1 [PP0715],B (a compound having 3 or more and less than 10 is denoted as B),C (A compound having a KD ratio of 0.1 or more and less than 3 is denoted as C)
CCO[C@@H]1C[C@H]2C(=O)NC3(CCC3)C(=O)N(C)[C@@H](C3CCCC3)C(=O)N(C)[C@H](C(=O)N3CCOCC3)CC(=O)N(C)[C@@H](CC3CCCCC3)C(=O)N[C@@H]([C@@H](C)CC)C(=O)N(C)CC(=O)N(C)[C@H]3CCCCN(C3=O)[C@@H](Cc3ccc(C(F)(F)F)cc3)C(=O)N(C)CC(=O)N[C@@H](CCc3cc(F)c(C(F)(F)F)c(F)c3)C(=O)N2C1 [PP0716],B (a compound having 3 or more and less than 10 is denoted as B),C (A compound having a KD ratio of 0.1 or more and less than 3 is denoted as C)
CCO[C@@H]1C[C@H]2C(=O)NC3(CCC3)C(=O)N(C)[C@@H](C3CCCC3)C(=O)N(C)[C@H](C(=O)N3CCOCC3)CC(=O)N(C)[C@@H](Cc3cccnc3)C(=O)N[C@@H]([C@@H](C)CC)C(=O)N(C)CC(=O)N(C)[C@H]3CCCCN(C3=O)[C@@H](Cc3ccc(C(F)(F)F)cc3)C(=O)N(C)CC(=O)N[C@@H](CCc3cc(F)c(C(F)(F)F)c(F)c3)C(=O)N2C1 [PP0718],B (a compound having 3 or more and less than 10 is denoted as B),C (A compound having a KD ratio of 0.1 or more and less than 3 is denoted as C)
CCO[C@@H]1C[C@H]2C(=O)NC3(CCC3)C(=O)N(C)[C@@H](C3CCCC3)C(=O)N(C)[C@H](C(=O)N3CCOCC3)CC(=O)N(C)[C@@H](COC)C(=O)N[C@@H]([C@@H](C)CC)C(=O)N(C)CC(=O)N(C)[C@H]3CCCCN(C3=O)[C@@H](Cc3ccc(C(F)(F)F)cc3)C(=O)N(C)CC(=O)N[C@@H](CCc3cc(F)c(C(F)(F)F)c(F)c3)C(=O)N2C1 [PP0719],B (a compound having 3 or more and less than 10 is denoted as B),C (A compound having a KD ratio of 0.1 or more and less than 3 is denoted as C)
CCO[C@@H]1C[C@H]2C(=O)NC3(CCC3)C(=O)N(C)[C@@H](C3CCCC3)C(=O)N(C)[C@H](C(=O)N3CCOCC3)CC(=O)N(C)[C@@H](CCOC)C(=O)N[C@@H]([C@@H](C)CC)C(=O)N(C)CC(=O)N(C)[C@H]3CCCCN(C3=O)[C@@H](Cc3ccc(C(F)(F)F)cc3)C(=O)N(C)CC(=O)N[C@@H](CCc3cc(F)c(C(F)(F)F)c(F)c3)C(=O)N2C1 [PP0720],B (a compound having 3 or more and less than 10 is denoted as B),C (A compound having a KD ratio of 0.1 or more and less than 3 is denoted as C)
CCO[C@@H]1C[C@H]2C(=O)NC3(CCC3)C(=O)N(C)[C@@H](C3CCCC3)C(=O)N(C)[C@H](C(=O)N3CCOCC3)CC(=O)N(C)C[C@@H](C)C(=O)N[C@@H]([C@@H](C)CC)C(=O)N(C)CC(=O)N(C)[C@H]3CCCCN(C3=O)[C@@H](Cc3ccc(C(F)(F)F)cc3)C(=O)N(C)CC(=O)N[C@@H](CCc3cc(F)c(C(F)(F)F)c(F)c3)C(=O)N2C1 [PP0721],B (a compound having 3 or more and less than 10 is denoted as B),B (a compound having 3 or more and less than 10 is denoted as B)
CCO[C@@H]1C[C@H]2C(=O)NC3(CCC3)C(=O)N(C)[C@@H](C3CCCC3)C(=O)N(C)[C@H](C(=O)N3CCOCC3)CC(=O)N(C)C(C)(C)C(=O)N[C@@H]([C@@H](C)CC)C(=O)N(C)CC(=O)N(C)[C@H]3CCCCN(C3=O)[C@@H](Cc3ccc(C(F)(F)F)cc3)C(=O)N(C)CC(=O)N[C@@H](CCc3cc(F)c(C(F)(F)F)c(F)c3)C(=O)N2C1 [PP0722],B (a compound having 3 or more and less than 10 is denoted as B),C (A compound having a KD ratio of 0.1 or more and less than 3 is denoted as C)
CCO[C@@H]1C[C@H]2C(=O)NC3(CC(C)(C)C3)C(=O)N(C)[C@@H](C3CCCC3)C(=O)N(C)[C@H](C(=O)N(C)C)CC(=O)N(C)[C@@H](C)C(=O)N[C@@H]([C@@H](C)CC)C(=O)N(C)CC(=O)N(C)[C@H]3CCCCCN(C3=O)[C@@H](Cc3ccc(C(F)(F)F)cc3)C(=O)N(C)CC(=O)N[C@@H](CCc3cc(F)c(C(F)(F)F)c(F)c3)C(=O)N2C1 [PP0723],B (a compound having 3 or more and less than 10 is denoted as B),B (a compound having 3 or more and less than 10 is denoted as B)
CCO[C@@H]1C[C@H]2C(=O)NC3(CC=CC3)C(=O)N(C)[C@@H](C3CCCC3)C(=O)N(C)[C@H](C(=O)N(C)C)CC(=O)N(C)[C@@H](C)C(=O)N[C@@H]([C@@H](C)CC)C(=O)N(C)CC(=O)N(C)[C@H]3CCCCCN(C3=O)[C@@H](Cc3ccc(C(F)(F)F)cc3)C(=O)N(C)CC(=O)N[C@@H](CCc3cc(F)c(C(F)(F)F)c(F)c3)C(=O)N2C1 [PP0724],B (a compound having 3 or more and less than 10 is denoted as B),B (a compound having 3 or more and less than 10 is denoted as B)
CCO[C@@H]1C[C@H]2C(=O)NC3(CCC(F)(F)CC3)C(=O)N(C)[C@@H](C3CCCC3)C(=O)N(C)[C@H](C(=O)N(C)C)CC(=O)N(C)[C@@H](C)C(=O)N[C@@H]([C@@H](C)CC)C(=O)N(C)CC(=O)N(C)[C@H]3CCCCCN(C3=O)[C@@H](Cc3ccc(C(F)(F)F)cc3)C(=O)N(C)CC(=O)N[C@@H](CCc3cc(F)c(C(F)(F)F)c(F)c3)C(=O)N2C1 [PP0725],B (a compound having 3 or more and less than 10 is denoted as B),B (a compound having 3 or more and less than 10 is denoted as B)
CCO[C@@H]1C[C@H]2C(=O)NC3(CC(C)(C)C3)C(=O)N(C)[C@@H](C3CCCC3)C(=O)N(C)[C@H](C(=O)N3CCOCC3)CC(=O)N(C)[C@@H](CC(C)C)C(=O)N[C@@H]([C@@H](C)CC)C(=O)N(C)CC(=O)N(C)[C@H]3CCCCCN(C3=O)[C@@H](Cc3ccc(C(F)(F)F)cc3)C(=O)N(C)CC(=O)N[C@@H](CCc3cc(F)c(C(F)(F)F)c(F)c3)C(=O)N2C1 [PP0726],B (a compound having 3 or more and less than 10 is denoted as B),B (a compound having 3 or more and less than 10 is denoted as B)
